pIC50: −log10 of the molar value. Values belong to the compound of their own block, whether it stands above or below them.
Molecular target: T1, MBP-HTT(1-89)Q46-His(6×) (“Exon1-Q46”) protein aggregates (Homo sapiens, UniProt P42858, INS38QQQQQQQQQQQQQQQQQQQQQQQQQ)
T1 construct: MBP-HTT(1-89)Q46-His(6×); His(6×) (C); made in house
Assay: Exon1-Q46 Radioligand Binding Assay
Conditions: displacement of 0.3 nM [3H3-methyl]-5-((5-methoxypyridin-2-yl)methoxy)-2-(pyrazin-2-yl)benzo[d]oxazole from 1 μM aggregated Exon1-Q46, 60 minutes at 37° C.; read-out: Potency Range (IC50)
Method: Exon1-Q46 Radioligand Binding Assay
For experiments 30 μM MBP-Exon1-Q46 was incubated with 150 μg/mL thrombin in assay buffer (150 mM NaCl, 50 mM Tris pH 8.0) and 2 mM CaCl2 for 16 hours at 37° C. Aggregated Exon1-Q46 was pelleted by centrifugation for 5 minutes at 13,000 rpm in a bench top centrifuge and re-dissolved in the same volume of assay buffer. […] For the RBA, Q46 protein aggregates and test compounds were pre-incubated in assay buffer for 20 minutes at room temperature, in 100 μL/well in a 96-well plate (pp, round bottom). Then, ligand was added in 50 μL/well and incubated for 60 minutes at 37° C. Final assay concentrations were […] test compound, 1 μM Exon1-Q46 protein (equivalent monomer concentration) and 0.3 nM ligand [^3H3-methyl]-5-((5-methoxypyridin-2-yl)methoxy)-2-(pyrazin-2-yl)benzo[d]oxazole. Samples were transferred onto GF/B filter plates and washed 2× with 200 μL PBS using a Filtermate Harvester. After drying filter plates for 1 hour at 55° C., the back of the plates were sealed with foil and 30 μL/well scintillation fluid (Packard MicroScint 40) added, incubated for 15 minutes in the dark and counted in a MicroBeta reader. […] IC50 values were determined with a sigmoidal inhibition model with four variables (top, bottom, slope, IC50) in a global fit using the normalized replicate data.

T1 sequence (P42858 with tags, fused parts or gaps with the stated changes limits assumed): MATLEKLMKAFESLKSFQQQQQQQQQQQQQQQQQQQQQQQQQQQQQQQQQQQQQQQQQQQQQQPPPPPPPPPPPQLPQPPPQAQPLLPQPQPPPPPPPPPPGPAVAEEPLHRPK

pIC50: > 7.00
Structure (SMILES): COc1ccc(NC(=O)[C@H]2CC[C@@H]2n2c(=O)c3cccn3c3ccccc32)nc1 (racemic) [Example 17-1, (1SR,2SR)—N-(5-Methoxypyridin-2-yl)-2-{4-oxo-4H,5H-pyrrolo[1,2-a]quinoxalin-5-yl}cyclobutane-1-carboxamide]

pIC50: > 7.00
Structure (SMILES): Cc1ccc(NC(=O)CCCn2c(=O)c3cccn3c3ccncc32)cc1 [Example 2-1, 4-(7-Oxo-2,8,11-triazatricyclo[7.4.0.0^2,6]trideca-1(9),3,5,10,12-pentaen-8-yl)-N-(p-tolyl)butanamide]

pIC50: > 7.00
Structure (SMILES): COc1ccc(NC(=O)CCCn2c(=O)c3cccn3c3ccncc32)cc1 [Example 2-2]

pIC50: > 7.00
Structure (SMILES): COc1cccc(NC(=O)CCCn2c(=O)c3cccn3c3ccncc32)c1 [Example 2-3]

pIC50: > 7.00
Structure (SMILES): COc1ccnc(NC(=O)CCCn2c(=O)c3cccn3c3ccncc32)c1 [Example 2-4]

pIC50: > 7.00
Structure (SMILES): COc1ccc(NC(=O)CCCn2c(=O)c3cccn3c3ccncc32)nc1 [Example 2-5]

pIC50: > 7.00
Structure (SMILES): O=C(CCn1c(=O)c2cccn2c2ccc(F)cc21)N1CCCCC1 [Example 3-1, 7-Fluoro-5-[3-oxo-3-(piperidin-1-yl)propyl]-4H,5H-pyrrolo[1,2-a]quinoxalin-4-one]

pIC50: > 7.00
Structure (SMILES): Cc1ccc(NC(=O)CCn2c(=O)c3cccn3c3ccc(F)cc32)cc1 [Example 3-2]

pIC50: > 7.00
Structure (SMILES): COc1ccc(NC(=O)CCn2c(=O)c3cccn3c3ccc(F)cc32)cc1 [Example 3-3]

pIC50: > 7.00
Structure (SMILES): COc1ncccc1NC(=O)CCn1c(=O)c2cccn2c2ccc(F)cc21 [Example 3-4]

pIC50: > 7.00
Structure (SMILES): COc1cc(NC(=O)CCn2c(=O)c3cccn3c3ccc(F)cc32)ccn1 [Example 3-5]

pIC50: > 7.00
Structure (SMILES): COc1ccc(NC(=O)CCn2c(=O)c3cccn3c3ccc(F)cc32)nc1 [Example 3-6]

pIC50: > 7.00
Structure (SMILES): COc1cccc(NC(=O)CCn2c(=O)c3cccn3c3ccc(F)cc32)n1 [Example 3-7]

pIC50: > 7.00
Structure (SMILES): Cc1ccc(NC(=O)CCn2c(=O)c3cccn3c3ccc(F)cc32)cn1 [Example 3-8]

pIC50: > 7.00
Structure (SMILES): Cn1nc(NC(=O)CCn2c(=O)c3cccn3c3ccc(F)cc32)ccc1=O [Example 3-9]

pIC50: > 7.00
Structure (SMILES): COc1ccncc1NC(=O)CCn1c(=O)c2cccn2c2ccc(F)cc21 [Example 3-10]

pIC50: > 7.00
Structure (SMILES): COc1cncc(NC(=O)CCn2c(=O)c3cccn3c3ccc(F)cc32)c1 [Example 3-11]

pIC50: > 7.00
Structure (SMILES): COc1ccc(NC(=O)CCn2c(=O)c3cccn3c3ccc(F)cc32)cn1 [Example 3-12]

pIC50: > 7.00
Structure (SMILES): COc1ccnc(NC(=O)CCn2c(=O)c3cccn3c3ccc(F)cc32)c1 [Example 3-13]

pIC50: > 7.00
Structure (SMILES): COc1ccc(N(C)C(=O)CCn2c(=O)c3cccn3c3ccc(F)cc32)cc1 [Example 3-14]

pIC50: > 7.00
Structure (SMILES): O=C(CCn1c(=O)c2cccn2c2ccc(F)cc21)Nc1ccccc1Cl [Example 3-15]

pIC50: > 7.00
Structure (SMILES): COc1ccccc1NC(=O)CCn1c(=O)c2cccn2c2ccc(F)cc21 [Example 3-16]

pIC50: > 7.00
Structure (SMILES): COc1cccnc1NC(=O)CCn1c(=O)c2cccn2c2ccc(F)cc21 [Example 3-17]

Continued, compound first:

Structure (SMILES): C[C@@H]1CN(C(=O)CCCn2c(=O)c3cccn3c3ccc(F)cc32)C[C@@H](C)O1 [Example 1-1, 5-{4-[(2R,6R)-2,6-Dimethylmorpholin-4-yl]-4-oxobutyl}-7-fluoro-4H,5H-pyrrolo[1,2-a]quinoxalin-4-one]
pIC50: > 7.00

Structure (SMILES): C[C@@H]1C[C@H](C)CN(C(=O)CCCn2c(=O)c3cccn3c3ccc(F)cc32)C1 [Example 1-2]
pIC50: > 7.00

Structure (SMILES): C[C@H]1C[C@H](C)CN(C(=O)CCCn2c(=O)c3cccn3c3ccc(F)cc32)C1 [Example 1-3]
pIC50: > 7.00

Structure (SMILES): C[C@H]1CN(C(=O)CCCn2c(=O)c3cccn3c3ccc(F)cc32)C[C@H](C)O1 [Example 1-4]
pIC50: > 7.00

Structure (SMILES): C[C@@H]1CN(C(=O)CCCn2c(=O)c3cccn3c3ccc(F)cc32)C[C@H](C)O1 [Example 1-5]
pIC50: > 7.00

Structure (SMILES): O=C(CCCn1c(=O)c2cccn2c2ccc(F)cc21)Nc1ccccn1 [Example 1-6]
pIC50: > 7.00

Structure (SMILES): O=C(CCCn1c(=O)c2cccn2c2ccc(F)cc21)NCc1cccnc1 [Example 1-7]
pIC50: 6.30 to 7.00

Structure (SMILES): O=C(CCCn1c(=O)c2cccn2c2ccc(F)cc21)N1CCc2ccccc2C1 [Example 1-8]
pIC50: > 7.00

Structure (SMILES): O=C(CCCn1c(=O)c2cccn2c2ccc(F)cc21)Nc1ccccc1 [Example 1-9]
pIC50: > 7.00

Structure (SMILES): Cc1ccc(NC(=O)CCCn2c(=O)c3cccn3c3ccc(F)cc32)cc1 [Example 1-10]
pIC50: > 7.00

Structure (SMILES): Cc1cccc(NC(=O)CCCn2c(=O)c3cccn3c3ccc(F)cc32)c1 [Example 1-11]
pIC50: > 7.00

Structure (SMILES): COc1ccc(NC(=O)CCCn2c(=O)c3cccn3c3ccc(F)cc32)cc1 [Example 1-12]
pIC50: > 7.00

Structure (SMILES): O=C(CCCn1c(=O)c2cccn2c2ccc(F)cc21)N1Cc2ccccc2C1 [Example 1-13]
pIC50: > 7.00

Structure (SMILES): COc1cccc(NC(=O)CCCn2c(=O)c3cccn3c3ccc(F)cc32)c1 [Example 1-14]
pIC50: > 7.00

Structure (SMILES): O=C(CCCn1c(=O)c2cccn2c2ccc(F)cc21)NCc1ccccc1 [Example 1-15]
pIC50: > 7.00

Structure (SMILES): O=C(CCCn1c(=O)c2cccn2c2ccc(F)cc21)Nc1ccncc1 [Example 1-16]
pIC50: > 7.00

Structure (SMILES): COc1ccccc1NC(=O)CCCn1c(=O)c2cccn2c2ccc(F)cc21 [Example 1-17]
pIC50: > 7.00

Structure (SMILES): O=C(CCCn1c(=O)c2cccn2c2ccc(F)cc21)NCCc1cccnc1 [Example 1-18]
pIC50: > 7.00

Structure (SMILES): O=C(CCCn1c(=O)c2cccn2c2ccc(F)cc21)NCC1CCCCC1 [Example 1-19]
pIC50: > 7.00

Structure (SMILES): O=C(CCCn1c(=O)c2cccn2c2ccc(F)cc21)NCCc1ccccc1 [Example 1-20]
pIC50: > 7.00

Structure (SMILES): Cc1ccccc1NC(=O)CCCn1c(=O)c2cccn2c2ccc(F)cc21 [Example 1-21]
pIC50: > 7.00

Structure (SMILES): O=C(CCCn1c(=O)c2cccn2c2ccc(F)cc21)Nc1cccc(Cl)c1 [Example 1-22]
pIC50: > 7.00

Structure (SMILES): COc1ccc(N(C)C(=O)CCCn2c(=O)c3cccn3c3ccc(F)cc32)cc1 [Example 1-23]
pIC50: > 7.00

Structure (SMILES): O=C(CCCn1c(=O)c2cccn2c2ccc(F)cc21)Nc1cccnc1 [Example 1-24]
pIC50: > 7.00

Structure (SMILES): O=C(CCCn1c(=O)c2cccn2c2ccc(F)cc21)Nc1ccccc1Cl [Example 1-25]
pIC50: > 7.00

Structure (SMILES): O=C(CCCn1c(=O)c2cccn2c2ccc(F)cc21)Nc1ccc(Cl)cc1 [Example 1-26]
pIC50: > 7.00

Structure (SMILES): CC(C)NC(=O)CCCn1c(=O)c2cccn2c2ccc(F)cc21 [Example 1-27]
pIC50: 6.30 to 7.00

Structure (SMILES): O=C(CCCn1c(=O)c2cccn2c2ccc(F)cc21)NC1CCCC1 [Example 1-28]
pIC50: 6.30 to 7.00

Structure (SMILES): CN1CCN(C(=O)CCCn2c(=O)c3cccn3c3ccc(F)cc32)CC1 [Example 1-29]
pIC50: 6.30 to 7.00

Structure (SMILES): CN(C)CCNC(=O)CCCn1c(=O)c2cccn2c2ccc(F)cc21 [Example 1-30]
pIC50: 5.00 to 6.30

Structure (SMILES): COCCNC(=O)CCCn1c(=O)c2cccn2c2ccc(F)cc21 [Example 1-31]
pIC50: 6.30 to 7.00

Structure (SMILES): COC1CCC(NC(=O)CCCn2c(=O)c3cccn3c3ccc(F)cc32)CC1 (stereo not drawn) [Example 1-32]
pIC50: 6.30 to 7.00

Structure (SMILES): CNC(=O)CCCn1c(=O)c2cccn2c2ccc(F)cc21 [Example 1-33]
pIC50: 6.30 to 7.00

Structure (SMILES): CCNC(=O)CCCn1c(=O)c2cccn2c2ccc(F)cc21 [Example 1-34]
pIC50: 6.30 to 7.00

Structure (SMILES): O=C(CCCn1c(=O)c2cccn2c2ccc(F)cc21)NC1CCCCC1 [Example 1-35]
pIC50: 6.30 to 7.00

Structure (SMILES): COC1CCN(C(=O)CCCn2c(=O)c3cccn3c3ccc(F)cc32)C1 (stereo not drawn) [Example 1-36]
pIC50: > 7.00

Structure (SMILES): O=C(CCCn1c(=O)c2cccn2c2ccc(F)cc21)N1CCC(C(F)(F)F)CC1 [Example 1-37]
pIC50: > 7.00

Structure (SMILES): O=C(CCCn1c(=O)c2cccn2c2ccc(F)cc21)N1CCCC1 [Example 1-38]
pIC50: > 7.00

Structure (SMILES): O=C(CCCn1c(=O)c2cccn2c2ccc(F)cc21)NC1CCC(C(F)(F)F)CC1 (stereo not drawn) [Example 1-39]
pIC50: > 7.00

Structure (SMILES): CN(C)C(=O)CCCn1c(=O)c2cccn2c2ccc(F)cc21 [Example 1-40]
pIC50: > 7.00

Structure (SMILES): CN1CCN(C(=O)CCCn2c(=O)c3cccn3c3ccc(F)cc32)CC1=O [Example 1-41]
pIC50: > 7.00

Structure (SMILES): COC1CCCN(C(=O)CCCn2c(=O)c3cccn3c3ccc(F)cc32)C1 (stereo not drawn) [Example 1-42]
pIC50: > 7.00

Structure (SMILES): COc1ccc(NC(=O)CCCn2c(=O)c3cccn3c3ccc(F)cc32)nc1 [Example 1-43]
pIC50: > 7.00

Structure (SMILES): COc1ccnc(NC(=O)CCCn2c(=O)c3cccn3c3ccc(F)cc32)c1 [Example 1-44]
pIC50: > 7.00

Structure (SMILES): O=C(CCCn1c(=O)c2cccn2c2ccc(F)cc21)N1CCCC(C(F)(F)F)C1 (stereo not drawn) [Example 1-45]
pIC50: > 7.00

Structure (SMILES): CC1CCC(N(C)C(=O)CCCn2c(=O)c3cccn3c3ccc(F)cc32)CC1 (stereo not drawn) [Example 1-46]
pIC50: > 7.00

Structure (SMILES): C[C@@H]1CN(C(=O)CCCn2c(=O)c3cccn3c3ccc(F)cc32)C[C@@H]1C [Example 1-47]
pIC50: > 7.00

Structure (SMILES): C[C@@H]1CN(C(=O)CCCn2c(=O)c3cccn3c3ccc(F)cc32)C[C@H]1C [Example 1-48]
pIC50: > 7.00

Structure (SMILES): C[C@@H]1CN(C(=O)CCn2c(=O)c3cccn3c3ccc(F)cc32)C[C@H]1C [Example 1-49]
pIC50: > 7.00

Reference: patent US11918662B2, “Heterocyclic compounds and imaging agents for imaging huntingtin protein” (CHDI Foundation, Inc., priority 2020, dated 2024)
